Legend:
[1] = Demonstration of CNS penetration, brain and plasma levels in mice; format: in vivo; settings: mouse, oral, mice (C57), 100 mg/kg orally, samples at 2, 4 and 8 h, read-out: % ratio of brain to plasma concentration
Method: In-vivo Study: A total number of 24 mice (C57) were dosed orally at 100 mg/kg of drug compound in 10% propylene glycol, 7.5% ethanol and 82.5% solutol. At designated times (2, 4 and 8 his), a group of eight mice were sacrificed, and plasma and brain tissue samples were collected by following the NIH guideline.
Bioanalytical: Plasma samples were prepared as follows. Two hundred microliters of acetonitrile containing internal standard was added to 100 μL of plasma to precipitate proteins. After vortexing, samples were centrifuged at 10000 g for 10 min and supernatants were transferred to HPLC sample vials for analysis by LC-MS-MS. Calibration standards were prepared by adding appropriate volumes of drug stock solution directly into blank plasma (from untreated animals) and processed identically to collected plasma samples.
Brain tissues were first homogenized in two-volume of PBS buffer (e.g. 100 mg tissue in 200 μL PBS). Two hundred microliters of acetonitrile containing internal standard was added to 100 μL of tissue homogenants to precipitate proteins. Three replicates were processed for each tissue homogenant. After vortexing, samples were centrifuged at 10000 g for 10 min and supernatants were transferred to HPLC sample vials for analysis by LC-MS-MS. […]

[2] = system: γ-secretase activity; assay: Screening for γ-secretase-modulating activity in SKN neuroblastoma cells carrying APP swedish mutant; format: cell-based; settings: read-out: IC50 on the γ-secretase activity, Activity range
Method: Screening was carried out using SKN neuroblastoma cells carrying the APP-“swedish mutant” (point mutations at position 595 and 596, numbering based on APP695) grown in DMEM/NUT-mix F12 (HAM) provided by Gibco (cat no. 31330-38) containing 5% Serum/Fe supplemented with 1% non-essential amino acids, 100 U/ml Pen/Strep.
Cells were grown to near confluency.
The screening was performed using the assay as described in Citron et al (1997) Nature Medicine 3: 67.
IC50-Values of Selected Compounds of the Invention on the γ-Secretase Activity.

[3] = biological target: T1, Cyclooxygenase-1 (Cox-1) (Ovis aries, UniProt P05979); assay: Colorimetric Cox inhibitor screening assay (Cayman), Cox-1; format: biochemical
T1 construct: purchased Cayman Chemical Company 760111
T1 sequence (P05979 25-600): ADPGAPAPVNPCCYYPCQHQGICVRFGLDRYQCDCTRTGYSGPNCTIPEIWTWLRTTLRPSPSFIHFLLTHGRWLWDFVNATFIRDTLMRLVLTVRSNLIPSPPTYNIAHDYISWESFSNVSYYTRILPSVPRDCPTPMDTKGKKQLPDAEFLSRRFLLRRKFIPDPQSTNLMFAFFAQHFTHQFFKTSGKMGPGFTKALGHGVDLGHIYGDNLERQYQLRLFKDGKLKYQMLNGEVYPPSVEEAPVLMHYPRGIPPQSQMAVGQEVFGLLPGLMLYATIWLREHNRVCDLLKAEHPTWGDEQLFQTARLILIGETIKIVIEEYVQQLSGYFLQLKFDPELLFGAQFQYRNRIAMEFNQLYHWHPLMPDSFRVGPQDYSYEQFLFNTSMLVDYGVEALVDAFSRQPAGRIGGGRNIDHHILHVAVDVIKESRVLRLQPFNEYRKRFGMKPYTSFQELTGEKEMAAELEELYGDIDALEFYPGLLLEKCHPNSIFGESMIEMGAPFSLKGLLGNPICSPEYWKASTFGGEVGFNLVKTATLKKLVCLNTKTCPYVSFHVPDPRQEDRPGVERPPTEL
Method: (§1) Determination of the Effect of the Compounds According to the Invention on Cyclooxygenase-1 and Cyclooxygenase-2 (Cox-1, Cox-2)
(§2) Inhibition of Cox-1 and Cox-2 was determined using the Colorimetric Cox inhibitor screening assay provided by Cayman Chemical Company, Ann Arbor, Mich., USA. (Cat. No. 760111) according to manufacturer's instructions.

[4] = biological target: T2, Cyclooxygenase-2 (Cox-2) (Ovis aries, UniProt P79208); assay: Colorimetric Cox inhibitor screening assay (Cayman), Cox-2; format: biochemical
T2 construct: purchased Cayman Chemical Company 760111
T2 sequence (P79208 17-603): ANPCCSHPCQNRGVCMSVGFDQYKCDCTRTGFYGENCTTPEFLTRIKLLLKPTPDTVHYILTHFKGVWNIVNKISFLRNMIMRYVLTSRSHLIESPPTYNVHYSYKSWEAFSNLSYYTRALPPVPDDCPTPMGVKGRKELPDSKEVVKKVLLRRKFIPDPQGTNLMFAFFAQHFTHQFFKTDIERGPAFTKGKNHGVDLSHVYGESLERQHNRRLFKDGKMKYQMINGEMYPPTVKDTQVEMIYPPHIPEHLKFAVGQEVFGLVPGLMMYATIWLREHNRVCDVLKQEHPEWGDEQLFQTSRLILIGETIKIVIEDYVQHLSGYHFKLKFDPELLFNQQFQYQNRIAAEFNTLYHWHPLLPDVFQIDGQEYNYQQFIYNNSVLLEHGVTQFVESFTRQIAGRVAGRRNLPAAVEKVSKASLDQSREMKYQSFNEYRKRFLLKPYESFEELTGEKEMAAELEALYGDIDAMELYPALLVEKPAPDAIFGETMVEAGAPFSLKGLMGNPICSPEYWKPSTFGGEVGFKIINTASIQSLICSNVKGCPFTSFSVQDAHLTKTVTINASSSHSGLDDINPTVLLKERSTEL
Method: as §1, §2

Row | Kp [1] | IC50 [2] | inhibition at 100 µM [3] | inhibition at 100 µM [4] | Compound
1 | 0.286 | – | – | – | CCC[C@@H](C(=O)O)c1cc(OCc2ccccc2)cc(-c2ccc(C(F)(F)F)cc2)c1 (single isomer, unassigned) [LXIV]
2 | 0.32 | – | – | – | CCC[C@H](C(=O)O)c1cc(OCc2ccccc2)cc(-c2ccc(C(F)(F)F)cc2)c1 (single isomer, unassigned) [LXV]
3 | – | 1000 to 10000 nM | < 50% | < 50% | O=C(O)Cc1cc(OCc2ccc(F)cc2)cc(-c2ccc(C(F)(F)F)cc2)c1 [I, [5-(4-Fluoro-benzyloxy)-4′-trifluoromethyl-biphenyl-3-yl]-acetic acid]
4 | – | < 1000 nM | < 50% | < 50% | O=C(O)Cc1cc(OCc2ccc(C(F)(F)F)cc2)cc(-c2ccc(C(F)(F)F)cc2)c1 [III, [4′-Trifluoromethyl-5-(4-trifluoromethyl-benzyloxy)-biphenyl-3-yl]-acetic acid]
5 | – | 1000 to 10000 nM | < 50% | < 50% | O=C(O)Cc1cc(OCc2ccccc2)cc(-c2cc(Cl)cc(Cl)c2)c1 [IX, (5-Benzyloxy-3′,5′-dichloro-biphenyl-3-yl)-acetic acid]
6 | – | < 1000 nM | < 50% | < 50% | O=C(O)Cc1cc(OCC2CCCCC2)cc(-c2ccc(C(F)(F)F)cc2)c1 [V, (5-Cyclohexylmethoxy-4′-trifluoromethyl-biphenyl-3-yl)-acetic acid]
7 | – | 1000 to 10000 nM | < 50% | < 50% | O=C(O)Cc1cc(OCc2ccc(S(=O)(=O)N3CCCC3)cc2)cc(-c2ccc(C(F)(F)F)cc2)c1 [VI, {5-[4-(Pyrrolidine-1-sulfonyl)-benzyloxy]-4′-trifluoromethyl-biphenyl-3-yl}-acetic acid]
8 | – | < 1000 nM | < 50% | < 50% | CCCC(C(=O)O)c1cc(OCc2ccccc2)cc(-c2ccc(C(F)(F)F)cc2)c1 (centres unmarked) [VIII, 2-(5-Benzyloxy-4′-trifluoromethyl-biphenyl-3-yl)-pentanoic acid]
9 | – | 1000 to 10000 nM | < 50% | < 50% | O=C(O)Cc1cc(OCc2ccccc2)cc(-c2ccc(C(F)(F)F)cc2)c1 [X, (5-Benzyloxy-4′-trifluoromethyl-biphenyl-3-yl)-acetic acid]
10 | – | 1000 to 10000 nM | < 50% | < 50% | O=C(O)Cc1cc(OCc2ccccc2)cc(-c2ccc(OC(F)(F)F)cc2)c1 [XIII, (5-Benzyloxy-4′-trifluoromethoxy-biphenyl-3-yl)-acetic acid]
11 | – | 1000 to 10000 nM | < 50% | < 50% | CC(C(=O)O)c1cc(OCc2ccccc2)cc(-c2ccc(C(F)(F)F)cc2)c1 (centres unmarked) [XIX, 2-(5-Benzyloxy-4′-trifluoromethyl-biphenyl-3-yl)-propionic acid]
12 | – | 1000 to 10000 nM | < 50% | < 50% | CCCC(C(=O)O)c1cc(OCC2CC2)cc(-c2ccc(C(F)(F)F)cc2)c1 (centres unmarked) [XL, 2-(5-Cyclopropylmethoxy-4′-trifluoromethyl-biphenyl-3-yl)-pentanoic acid]
13 | – | 1000 to 10000 nM | < 50% | < 50% | O=C(O)Cc1cc(OCC2CC2)cc(-c2ccc(C(F)(F)F)cc2)c1 [XLII, (5-Cyclopropylmethoxy-4′-trifluoromethyl-biphenyl-3-yl)-acetic acid]
14 | – | 1000 to 10000 nM | < 50% | < 50% | O=C(O)Cc1cc(OCc2cc(Cl)cc(Cl)c2)cc(-c2ccc(C(F)(F)F)cc2)c1 [XLIV, [5-(3,5-Dichloro-benzyloxy)-4′-trifluoromethyl-biphenyl-3-yl]-acetic acid]
15 | – | 1000 to 10000 nM | < 50% | < 50% | CN(C)S(=O)(=O)c1ccc(COc2cc(CC(=O)O)cc(-c3ccc(C(F)(F)F)cc3)c2)cc1 [XLVI, [5-(4-Dimethylsulfamoyl-benzyloxy)-4′-trifluoromethyl-biphenyl-3-yl]-acetic acid]
16 | – | 1000 to 10000 nM | < 50% | < 50% | CC(Oc1cc(CC(=O)O)cc(-c2ccc(C(F)(F)F)cc2)c1)c1ccccc1 (centres unmarked) [XLVII, [5-(1-Phenyl-ethoxy)-4′-trifluoromethyl-biphenyl-3-yl]-acetic acid]
17 | – | 1000 to 10000 nM | < 50% | < 50% | CC(C)(C(=O)O)c1cc(OCc2ccccc2)cc(-c2ccc(C(F)(F)F)cc2)c1 [XX, 2-(5-Benzyloxy-4′-trifluoromethyl-biphenyl-3-yl)-2-methyl-propionic acid]
18 | – | 1000 to 10000 nM | < 50% | < 50% | O=C(O)C1(c2cc(OCc3ccccc3)cc(-c3ccc(C(F)(F)F)cc3)c2)CC1 [XXI, 1-(5-Benzyloxy-4′-trifluoromethyl-biphenyl-3-yl)-cyclopropanecarboxylic acid]
19 | – | 1000 to 10000 nM | < 50% | < 50% | CCCC(C(=O)O)c1cc(OCc2ccc(S(=O)(=O)N3CCCC3)cc2)cc(-c2ccc(C(F)(F)F)cc2)c1 (centres unmarked) [XXXIX, 2-{5-[4-(Pyrrolidine-1-sulfonyl)-benzyloxy]-4′-trifluoromethyl-biphenyl-3-yl}-pentanoic acid]

— patent US7825160B2, “(Biphenyl) carboxylic acids and derivatives thereof” (Cellzome Limited, priority 2004, dated 2010)
